In PubChem BioAssay AID248 (DTP/NCI, 2004):
Inconclusive results and toxic doses are left out. Cut-off read from the data, not from the text of the source: active = T/C of 150% or more; inactive = T/C below 125%.

Test system: L1210 leukemia ip in BDF1 mice, survival T/C
Experiment: NCI In Vivo Anticancer Drug Screen. Data for tumor model L1210 Leukemia (intraperitoneal) in B6D2F1 (BDF1) mice
Conditions: endpoint: mean survival time, higher = longer survival
Method in brief: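 Tumor was transplanted into mice, which were then dosed with test compound or vehicle alone. Survival was recorded for each group, and the treated figure was expressed relative to the control figure.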

[1] = dose: 100.0 mg/kg/injection, schedule: Q01DX001 (ip), vehicle: saline
[2] = dose: 100.0 mg/kg/injection, schedule: Q04DX003 (ip), vehicle: saline
[3] = dose: 100.0 mg/kg/injection, schedule: Q04DX002 (ip), vehicle: saline with Tween-80
[4] = dose: 200.0 mg/kg/injection, schedule: Q04DX002 (ip), vehicle: saline with Tween-80
[5] = dose: 100.0 mg/kg/injection, schedule: Q01DX009 (ip), vehicle: saline with Tween-80
[6] = dose: 200.0 mg/kg/injection, schedule: Q01DX009 (ip), vehicle: saline with Tween-80
[7] = dose: 50.0 mg/kg/injection, schedule: Q01DX001 (ip), vehicle: saline
[8] = dose: 100.0 mg/kg/injection, schedule: Q04DX003 (ip), vehicle: saline with Tween-80
[9] = dose: 200.0 mg/kg/injection, schedule: Q01DX001 (ip), vehicle: saline
[10] = dose: 200.0 mg/kg/injection, schedule: Q04DX003 (ip), vehicle: saline with Tween-80
[11] = dose: 400.0 mg/kg/injection, schedule: Q01DX001 (ip), vehicle: saline
[12] = dose: 400.0 mg/kg/injection, schedule: Q04DX003 (ip), vehicle: saline with Tween-80
[13] = dose: 100.0 mg/kg/injection, schedule: Q01DX009 (ip), vehicle: saline sonified

Measured: T/C

CCN1CCC(CN2c3ccccc3Sc3ccccc32)C1 (stereo not given)
inactive: dose: 25.0 mg/kg/injection, schedule: Q01DX009 (ip), vehicle: saline 105 % of control | dose: 25.0 mg/kg/injection, schedule: Q04DX003 (ip), vehicle: saline 94 % of control | dose: 50.0 mg/kg/injection, schedule: Q01DX009 (ip), vehicle: saline 110 % of control | dose: 50.0 mg/kg/injection, schedule: Q04DX003 (ip), vehicle: saline 102 % of control | [1] 98 % of control | [2] 112 % of control

Cc1cc(C)cc(OC(=O)Nc2ccccc2C)c1
inactive: [3] 106 % of control | [4] 91 % of control

Cc1ccc(S(=O)(=O)N/N=C/C(O)C(O)C(O)C(O)CO)cc1 (stereo not given)
inactive: [5] 102 % of control | [6] 102 % of control | dose: 400.0 mg/kg/injection, schedule: Q01DX009 (ip), vehicle: saline with Tween-80 100 % of control

O=C(Cc1ccccc1)OCC1CC2C=CC1C2 (stereo not given)
inactive: dose: 222.0 mg/kg/injection, schedule: Q01DX Z (ip), vehicle: methylcellulose (MC) 102 % of control | dose: 333.0 mg/kg/injection, schedule: Q01DX Z (ip), vehicle: methylcellulose (MC) 93 % of control | dose: 500.0 mg/kg/injection, schedule: Q01DX Z (ip), vehicle: methylcellulose (MC) 93 % of control

O=C(c1ccc(Cl)cc1)C(O)c1ccc(Cl)cc1 (stereo not given)
inactive: [7] 96 % of control | [1] 90 % of control | [8] 90 % of control | [9] 96 % of control | [10] 92 % of control | [11] 100 % of control | [12] 86 % of control

CC(=O)CC(C)=NCC(C)N=C(C)CC(C)=O (stereo not given)
inactive: [5] 89 % of control | [8] 100 % of control | [6] 98 % of control | [10] 101 % of control | [12] 93 % of control

O=S(=O)(Cc1ccccc1)SSS(=O)(=O)Cc1ccccc1
inactive: dose: 75.0 mg/kg/injection, schedule: Q01DX001 (ip), vehicle: saline 98 % of control | dose: 150.0 mg/kg/injection, schedule: Q01DX001 (ip), vehicle: saline 106 % of control | dose: 300.0 mg/kg/injection, schedule: Q01DX001 (ip), vehicle: saline 95 % of control

CCc1ccccc1NC(=O)N1CCN(C)CC1
inactive: dose: 100.0 mg/kg/injection, schedule: Q01DX009 (ip), vehicle: saline 104 % of control | dose: 200.0 mg/kg/injection, schedule: Q01DX009 (ip), vehicle: saline 92 % of control

CC1C(OC(=O)CCc2ccccc2)=CCC2C1(C)CCC1C2(C)CCC2(C)C3CC(C)(C)CCC3(C)CCC12C (stereo not given)
inactive: [7] 98 % of control | [1] 102 % of control | [9] 95 % of control

NC(=O)c1ccc[n+](CCF)c1
inactive: [1] 98 % of control | [9] 98 % of control | [11] 104 % of control

CC(C)(C)NC1CCCC1Cl (stereo not given)
inactive: [5] 106 % of control | [6] 102 % of control

CC(O)/C(=N/Nc1ccc([N+](=O)[O-])cc1[N+](=O)[O-])C(=O)O (stereo not given)
inactive: dose: 50.0 mg/kg/injection, schedule: Q01DX009 (ip), vehicle: Klucel (hydroxypropylcellulose) (HPC) 106 % of control | dose: 100.0 mg/kg/injection, schedule: Q01DX009 (ip), vehicle: Klucel (hydroxypropylcellulose) (HPC) 96 % of control | dose: 100.0 mg/kg/injection, schedule: Q04DX003 (ip), vehicle: Klucel (hydroxypropylcellulose) (HPC) 91 % of control | dose: 200.0 mg/kg/injection, schedule: Q01DX009 (ip), vehicle: Klucel (hydroxypropylcellulose) (HPC) 96 % of control | dose: 200.0 mg/kg/injection, schedule: Q04DX003 (ip), vehicle: Klucel (hydroxypropylcellulose) (HPC) 88 % of control

Clc1nc(N2CC2)nc(N2CC2)n1
inactive: dose: 2.5 mg/kg/injection, schedule: Q01DX001 (ip), vehicle: carboxymethylcellulose (CMC) 112 % of control | dose: 5.0 mg/kg/injection, schedule: Q01DX001 (ip), vehicle: carboxymethylcellulose (CMC) 112 % of control | dose: 10.0 mg/kg/injection, schedule: Q01DX001 (ip), vehicle: carboxymethylcellulose (CMC) 117 % of control | dose: 15.0 mg/kg/injection, schedule: Q01DX001 (ip), vehicle: carboxymethylcellulose (CMC) 114 % of control

CCNC(=S)NCC
inactive: dose: 100.0 mg/kg/injection, schedule: Q04DX003 (ip), vehicle: carboxymethylcellulose (CMC) 98 % of control | dose: 200.0 mg/kg/injection, schedule: Q04DX003 (ip), vehicle: carboxymethylcellulose (CMC) 102 % of control | dose: 400.0 mg/kg/injection, schedule: Q04DX003 (ip), vehicle: carboxymethylcellulose (CMC) 107 % of control

CCCCNc1nc2ccccc2[nH]1
inactive: dose: 5.0 mg/kg/injection, schedule: Q01DX009 (ip), vehicle: acetone 98 % of control | dose: 10.0 mg/kg/injection, schedule: Q01DX001 (ip), vehicle: saline 103 % of control | dose: 10.0 mg/kg/injection, schedule: Q01DX009 (ip), vehicle: acetone 98 % of control | dose: 20.0 mg/kg/injection, schedule: Q01DX001 (ip), vehicle: saline 101 % of control | dose: 20.0 mg/kg/injection, schedule: Q01DX009 (ip), vehicle: acetone 110 % of control | dose: 40.0 mg/kg/injection, schedule: Q01DX001 (ip), vehicle: saline 101 % of control

c1cc[c]([Pb]([c]2ccccc2)([c]2ccccc2)[n]2c3ccccc3c3ccccc32)cc1
inactive: dose: 1.56 mg/kg/injection, schedule: Q01DX009 (ip), vehicle: saline with Tween-80 99 % of control | dose: 3.12 mg/kg/injection, schedule: Q01DX009 (ip), vehicle: saline with Tween-80 98 % of control | dose: 6.25 mg/kg/injection, schedule: Q01DX009 (ip), vehicle: saline with Tween-80 91 % of control

CCOC(=N)CC(O)C(Cl)(Cl)Cl (stereo not given)
inactive: [3] 99 % of control | [4] 103 % of control | dose: 400.0 mg/kg/injection, schedule: Q04DX002 (ip), vehicle: saline with Tween-80 92 % of control

O=C(C[n+]1cccc(C(=O)Nc2ccc(Cl)cc2)c1)Nc1ccccc1
inactive: [2] 92 % of control | dose: 200.0 mg/kg/injection, schedule: Q04DX003 (ip), vehicle: saline 101 % of control

CCCCCCCCCCCCCCCCCOC(=O)CCCCCCCCCCCCCCCCC
inactive: [8] 103 % of control | [10] 92 % of control | [12] 89 % of control

Cc1nc2nccnc2[nH]1
inactive: [13] 100 % of control | [8] 96 % of control | dose: 200.0 mg/kg/injection, schedule: Q01DX009 (ip), vehicle: saline sonified 92 % of control | [10] 96 % of control | dose: 400.0 mg/kg/injection, schedule: Q01DX009 (ip), vehicle: saline sonified 96 % of control | [12] 96 % of control

O=C(NC(=O)C(C(=O)c1ccccc1)c1ccccc1)c1ccccc1 (stereo not given)
inactive: dose: 100.0 mg/kg/injection, schedule: Q01DX001 (ip), vehicle: other 86 % of control | dose: 200.0 mg/kg/injection, schedule: Q01DX001 (ip), vehicle: other 89 % of control | dose: 400.0 mg/kg/injection, schedule: Q01DX001 (ip), vehicle: other 91 % of control

Cc1cc(C(C)(C)C)ccc1S(=O)(=O)C1CC1c1ccccc1 (stereo not given)
inactive: [1] 98 % of control | [9] 102 % of control | [11] 98 % of control

O=C(O)/C(=C\c1cccnc1)NC(=O)c1ccccc1
inactive: dose: 100.0 mg/kg/injection, schedule: Q04DX002 (ip), vehicle: Klucel (hydroxypropylcellulose) (HPC) 90 % of control | dose: 200.0 mg/kg/injection, schedule: Q04DX002 (ip), vehicle: Klucel (hydroxypropylcellulose) (HPC) 101 % of control | dose: 400.0 mg/kg/injection, schedule: Q04DX002 (ip), vehicle: Klucel (hydroxypropylcellulose) (HPC) 96 % of control

CCO/C=C1\SC(=S)N(c2ccc(C(=O)O)cc2)C1=O
inactive: dose: 25.0 mg/kg/injection, schedule: Q01DX009 (ip), vehicle: saline with Tween-80 108 % of control | dose: 50.0 mg/kg/injection, schedule: Q01DX009 (ip), vehicle: saline with Tween-80 100 % of control | [13] 97 % of control | dose: 100.0 mg/kg/injection, schedule: Q04DX003 (ip), vehicle: saline sonified 99 % of control | dose: 200.0 mg/kg/injection, schedule: Q04DX003 (ip), vehicle: saline sonified 102 % of control | dose: 400.0 mg/kg/injection, schedule: Q04DX003 (ip), vehicle: saline sonified 108 % of control

c1ccc(C2=Nc3ccccc3N=C3CCCC32)cc1 (stereo not given)
inactive: dose: 100.0 mg/kg/injection, schedule: Q01DX001 (ip), vehicle: carboxymethylcellulose (CMC) 103 % of control | dose: 200.0 mg/kg/injection, schedule: Q01DX001 (ip), vehicle: carboxymethylcellulose (CMC) 100 % of control | dose: 400.0 mg/kg/injection, schedule: Q01DX001 (ip), vehicle: carboxymethylcellulose (CMC) 97 % of control

N\C([S-])=N/N=C\C(=N/N=C(\N)[S-])C(O)C(O)C(O)CO.[Ni+2] (stereo not given)
inactive: [8] 96 % of control | [10] 94 % of control | [12] 91 % of control
